Source: ChEMBL document CHEMBL1201862, “PubChem BioAssay data set” (2004)
Where a name gives a salt, the structure may show the parent alone. Active and inactive are the calls of the source.

Columns and labels:
[1] = molecular target: T1, Polyadenylate-binding protein 1 (Homo sapiens, UniProt P11940); assay: MLLE binding blockers, Cy5 peptide tracer – biochemical, fluorescence polarization, Cy5-PAM2 peptide, secondary, miRNA deadenylation inhibitor project, dose response (AID 602260); assay type: functional; settings: read-out: IC50_Mean
[2] = molecular target: T1, Polyadenylate-binding protein 1; assay: MLLE domain peptide-binding blockers, IC50 – biochemical, fluorescence polarization, FITC-PAM2 peptide, dose response (AID 602259); assay type: functional; settings: read-out: IC50_Mean
Genome polyprotein = Genome polyprotein (dengue virus type 2, UniProt P29990); assay: flavivirus cap methylation enzyme inhibition – biochemical, confirmation dose response, primary screen (AID 588689); assay type: functional
Cytochrome P450 2C19 = Cytochrome P450 2C19 (Homo sapiens, UniProt P33261); assay: Cytochrome panel assay with activity outcomes. Panel member name: p450-cyp2c19 Compounds with AC50 equal or less than 10 uM are considered active; assay type: functional
Cytochrome P450 2C9 = Cytochrome P450 2C9 (Homo sapiens, UniProt P11712)
[3] = reduction of Shn3 3'UTR-driven luciferase in osteoblasts – cell-based, Clone20 osteoblasts, firefly luciferase, cherry-picked, dose response (AID 624132); assay type: functional;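 also: firefly luciferase luminescence from reporter carrying the Shn3 3'UTR in osteoblasts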
[4] = loss of viability in HepG2 cells – cell-based, CellTiter-Glo, cherry-picked, cytotoxicity control for Shn3 inhibitor project, dose response (AID 624134); assay type: functional
[5] = non-specific 3'UTR reporter inhibition in Clone20-Shn3RL – cell-based, Renilla luciferase, cherry-picked, counter-screen for Shn3 inhibitor project, dose response (AID 624133); assay type: functional
Paired box protein Pax-8 = Paired box protein Pax-8 (Homo sapiens, UniProt Q06710); assay: PAX8 transcriptional activity inhibition in RMG-I – RMG-I cells, luciferase, cherry-pick, dose response (AID 687027); assay type: functional, cell-based;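 also: luciferase reporter driven by Pax8 target thyroperoxidase promoter measured by SteadyGlo luminescence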
[6] = Trypanosoma cruzi growth suppression in host cells – NIH3T3 host cells, beta-gal luminescence, confirmation (AID 2044); assay type: functional, cell-based;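 also: intracellular parasites grown in NIH/3T3 mouse fibroblasts as host cells; luminescent beta-galactosidase reporter signal from transgenic T. cruzi replicating inside host cells; inhibitors lower the luminescence signal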
[7] = NIH3T3 cell viability loss – ATP luminescence, mouse fibroblasts, counter-screen, dose response (AID 2010); assay type: functional, cell-based;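 also: cells exposed to compound for about 90 hours before reading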
[8] = Luminescence Cell-Based Dose Retest to Confirm Inhibitors of Cancer Stem Cells. [Related pubchem assays (depositor defined):AID2717, AID2721]; assay type: functional; settings: Homo sapiens
Protein skinhead-1 = molecular target: T2, Protein skinhead-1 (Caenorhabditis elegans, UniProt P34707); assay type: functional
T2 sequence (P34707 whole entry): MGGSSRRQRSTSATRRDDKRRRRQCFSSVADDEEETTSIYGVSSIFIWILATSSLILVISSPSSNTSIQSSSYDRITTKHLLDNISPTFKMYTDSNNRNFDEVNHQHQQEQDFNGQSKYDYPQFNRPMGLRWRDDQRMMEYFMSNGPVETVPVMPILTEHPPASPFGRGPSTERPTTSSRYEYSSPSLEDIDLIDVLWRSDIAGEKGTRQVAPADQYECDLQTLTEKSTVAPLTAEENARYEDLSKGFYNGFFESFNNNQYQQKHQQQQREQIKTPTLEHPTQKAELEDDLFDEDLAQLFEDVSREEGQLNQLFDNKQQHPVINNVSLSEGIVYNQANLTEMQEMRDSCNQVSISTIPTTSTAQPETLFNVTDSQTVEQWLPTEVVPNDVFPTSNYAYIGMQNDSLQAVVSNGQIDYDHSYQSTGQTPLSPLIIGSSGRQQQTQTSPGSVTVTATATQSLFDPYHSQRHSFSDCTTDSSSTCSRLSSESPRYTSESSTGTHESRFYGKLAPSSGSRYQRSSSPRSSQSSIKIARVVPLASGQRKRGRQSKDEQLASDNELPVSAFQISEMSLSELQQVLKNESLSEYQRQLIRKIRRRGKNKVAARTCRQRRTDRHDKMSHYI

Cytochrome P450 1A2 = molecular target: T3, Cytochrome P450 1A2 (Homo sapiens, UniProt P05177);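 also: PubChem cytochrome P450 panel assay, CYP1A2 panel member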
T3 sequence (P05177 whole entry): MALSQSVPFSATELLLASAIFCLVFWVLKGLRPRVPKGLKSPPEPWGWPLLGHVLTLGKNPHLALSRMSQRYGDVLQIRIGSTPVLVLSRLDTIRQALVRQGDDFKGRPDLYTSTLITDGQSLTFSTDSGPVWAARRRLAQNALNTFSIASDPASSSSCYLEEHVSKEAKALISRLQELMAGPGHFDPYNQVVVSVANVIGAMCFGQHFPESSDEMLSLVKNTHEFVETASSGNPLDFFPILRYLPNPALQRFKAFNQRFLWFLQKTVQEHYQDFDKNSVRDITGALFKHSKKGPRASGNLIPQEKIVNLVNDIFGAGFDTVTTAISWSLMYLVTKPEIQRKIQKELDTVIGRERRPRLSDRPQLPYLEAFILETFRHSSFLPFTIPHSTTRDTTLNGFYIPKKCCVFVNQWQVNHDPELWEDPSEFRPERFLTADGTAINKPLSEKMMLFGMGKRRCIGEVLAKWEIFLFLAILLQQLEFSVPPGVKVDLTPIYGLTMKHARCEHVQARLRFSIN

[9] = molecular target: FAD-linked sulfhydryl oxidase ALR (Homo sapiens, UniProt P55789); assay: ALR-catalysed DTT oxidation blockers – biochemical, H2O2 detection, luminescence, cherry-pick, dose response (AID 493248)
[10] = molecular target: T4, Rac GTPase-activating protein 1 (Homo sapiens, UniProt Q9H0H5); assay: blockers of MgcRacGAP-driven Rac1 GTP hydrolysis – biochemical, ADP Hunter fluorescence, primary and confirmatory, confirmation (AID 624330); assay type: functional
T4 sequence (Q9H0H5 whole entry): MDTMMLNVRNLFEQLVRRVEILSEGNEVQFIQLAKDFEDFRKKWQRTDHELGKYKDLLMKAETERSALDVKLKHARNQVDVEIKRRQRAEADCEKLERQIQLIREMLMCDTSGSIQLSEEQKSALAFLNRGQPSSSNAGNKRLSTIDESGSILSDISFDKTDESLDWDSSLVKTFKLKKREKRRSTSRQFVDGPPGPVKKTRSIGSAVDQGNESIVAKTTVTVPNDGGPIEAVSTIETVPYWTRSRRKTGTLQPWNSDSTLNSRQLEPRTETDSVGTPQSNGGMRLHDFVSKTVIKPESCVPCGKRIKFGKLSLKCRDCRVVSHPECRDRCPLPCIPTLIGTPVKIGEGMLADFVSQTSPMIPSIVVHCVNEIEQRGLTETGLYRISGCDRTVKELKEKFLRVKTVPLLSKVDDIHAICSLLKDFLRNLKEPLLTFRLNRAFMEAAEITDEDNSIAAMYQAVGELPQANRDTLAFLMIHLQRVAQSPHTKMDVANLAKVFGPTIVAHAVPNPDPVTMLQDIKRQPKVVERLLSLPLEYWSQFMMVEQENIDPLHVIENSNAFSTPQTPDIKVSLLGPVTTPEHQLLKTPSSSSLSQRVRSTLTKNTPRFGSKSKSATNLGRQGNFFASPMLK

T1 sequence (P11940 whole entry, the tested form may be a part): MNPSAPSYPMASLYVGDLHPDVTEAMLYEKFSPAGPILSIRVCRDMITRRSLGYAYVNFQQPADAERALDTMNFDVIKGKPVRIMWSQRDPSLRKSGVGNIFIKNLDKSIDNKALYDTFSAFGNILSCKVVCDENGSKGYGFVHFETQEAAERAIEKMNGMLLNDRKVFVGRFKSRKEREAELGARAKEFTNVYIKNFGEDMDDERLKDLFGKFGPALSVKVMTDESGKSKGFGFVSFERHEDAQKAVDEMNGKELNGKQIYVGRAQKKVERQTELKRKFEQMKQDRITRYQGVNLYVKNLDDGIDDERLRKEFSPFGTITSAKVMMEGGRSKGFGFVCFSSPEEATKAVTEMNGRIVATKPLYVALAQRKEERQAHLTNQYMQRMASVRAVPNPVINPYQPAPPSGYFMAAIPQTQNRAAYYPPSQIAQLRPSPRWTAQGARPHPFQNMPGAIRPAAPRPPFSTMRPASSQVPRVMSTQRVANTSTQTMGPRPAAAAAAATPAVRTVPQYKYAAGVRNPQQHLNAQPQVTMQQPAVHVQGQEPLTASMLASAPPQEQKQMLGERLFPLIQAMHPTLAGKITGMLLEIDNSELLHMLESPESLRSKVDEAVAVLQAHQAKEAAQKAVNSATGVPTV
Cytochrome P450 2C19, sequence (P33261 whole entry): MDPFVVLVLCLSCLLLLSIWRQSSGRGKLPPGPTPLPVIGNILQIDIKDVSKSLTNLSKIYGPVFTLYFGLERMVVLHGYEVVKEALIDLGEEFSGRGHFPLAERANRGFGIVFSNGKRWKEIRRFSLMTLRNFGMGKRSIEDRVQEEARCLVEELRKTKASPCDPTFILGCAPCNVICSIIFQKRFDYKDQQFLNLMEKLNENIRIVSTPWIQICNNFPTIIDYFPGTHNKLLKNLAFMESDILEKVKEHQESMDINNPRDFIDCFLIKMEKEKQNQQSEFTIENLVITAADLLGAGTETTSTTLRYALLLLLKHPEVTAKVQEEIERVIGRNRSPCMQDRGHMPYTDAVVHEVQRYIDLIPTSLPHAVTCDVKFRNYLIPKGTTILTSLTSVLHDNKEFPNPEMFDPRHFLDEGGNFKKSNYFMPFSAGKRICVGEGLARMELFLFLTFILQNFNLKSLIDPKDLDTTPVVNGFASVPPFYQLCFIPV
FAD-linked sulfhydryl oxidase ALR, sequence (P55789 whole entry): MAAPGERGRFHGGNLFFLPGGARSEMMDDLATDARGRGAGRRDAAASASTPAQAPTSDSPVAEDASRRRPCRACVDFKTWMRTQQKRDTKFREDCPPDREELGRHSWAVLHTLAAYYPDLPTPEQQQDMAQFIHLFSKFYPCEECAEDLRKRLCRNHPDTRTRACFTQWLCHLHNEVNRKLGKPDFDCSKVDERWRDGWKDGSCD
Paired box protein Pax-8, sequence (Q06710 whole entry): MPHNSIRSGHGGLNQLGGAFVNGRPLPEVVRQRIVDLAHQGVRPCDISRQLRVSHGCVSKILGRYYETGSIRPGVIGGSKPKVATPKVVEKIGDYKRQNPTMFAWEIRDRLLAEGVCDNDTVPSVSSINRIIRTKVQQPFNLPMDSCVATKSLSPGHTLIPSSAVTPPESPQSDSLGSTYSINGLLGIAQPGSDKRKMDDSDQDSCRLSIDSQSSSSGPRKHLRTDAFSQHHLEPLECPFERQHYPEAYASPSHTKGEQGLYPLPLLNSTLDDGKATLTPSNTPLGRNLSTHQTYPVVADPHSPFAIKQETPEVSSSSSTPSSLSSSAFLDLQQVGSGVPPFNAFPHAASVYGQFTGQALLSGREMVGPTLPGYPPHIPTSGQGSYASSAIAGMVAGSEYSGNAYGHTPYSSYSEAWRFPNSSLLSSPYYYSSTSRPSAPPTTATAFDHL
Genome polyprotein, sequence (P29990 2492-3391 limits assumed): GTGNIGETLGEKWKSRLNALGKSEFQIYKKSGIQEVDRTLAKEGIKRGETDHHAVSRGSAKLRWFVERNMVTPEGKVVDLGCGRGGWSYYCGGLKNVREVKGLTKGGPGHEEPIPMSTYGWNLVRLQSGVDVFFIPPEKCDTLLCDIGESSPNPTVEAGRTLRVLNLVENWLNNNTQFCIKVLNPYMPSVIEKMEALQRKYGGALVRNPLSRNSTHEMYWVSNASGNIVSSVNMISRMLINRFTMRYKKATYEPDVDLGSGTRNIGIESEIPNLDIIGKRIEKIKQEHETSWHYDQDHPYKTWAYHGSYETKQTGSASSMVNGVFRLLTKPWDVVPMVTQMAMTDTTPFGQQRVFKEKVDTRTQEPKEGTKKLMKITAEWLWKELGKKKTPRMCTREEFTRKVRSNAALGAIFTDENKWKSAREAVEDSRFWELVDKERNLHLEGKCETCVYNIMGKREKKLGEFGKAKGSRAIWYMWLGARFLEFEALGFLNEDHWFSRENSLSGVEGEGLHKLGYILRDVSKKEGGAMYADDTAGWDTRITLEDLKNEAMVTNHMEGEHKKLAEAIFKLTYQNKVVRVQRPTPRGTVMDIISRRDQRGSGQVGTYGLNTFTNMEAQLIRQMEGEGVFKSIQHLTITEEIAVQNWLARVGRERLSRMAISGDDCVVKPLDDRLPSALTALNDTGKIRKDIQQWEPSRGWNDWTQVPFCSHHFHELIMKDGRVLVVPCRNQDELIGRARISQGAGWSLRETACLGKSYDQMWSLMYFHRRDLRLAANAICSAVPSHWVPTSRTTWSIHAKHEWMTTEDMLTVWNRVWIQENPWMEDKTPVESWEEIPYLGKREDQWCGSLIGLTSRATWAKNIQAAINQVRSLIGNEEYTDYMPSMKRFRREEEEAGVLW
Cytochrome P450 2C9, sequence (P11712 whole entry): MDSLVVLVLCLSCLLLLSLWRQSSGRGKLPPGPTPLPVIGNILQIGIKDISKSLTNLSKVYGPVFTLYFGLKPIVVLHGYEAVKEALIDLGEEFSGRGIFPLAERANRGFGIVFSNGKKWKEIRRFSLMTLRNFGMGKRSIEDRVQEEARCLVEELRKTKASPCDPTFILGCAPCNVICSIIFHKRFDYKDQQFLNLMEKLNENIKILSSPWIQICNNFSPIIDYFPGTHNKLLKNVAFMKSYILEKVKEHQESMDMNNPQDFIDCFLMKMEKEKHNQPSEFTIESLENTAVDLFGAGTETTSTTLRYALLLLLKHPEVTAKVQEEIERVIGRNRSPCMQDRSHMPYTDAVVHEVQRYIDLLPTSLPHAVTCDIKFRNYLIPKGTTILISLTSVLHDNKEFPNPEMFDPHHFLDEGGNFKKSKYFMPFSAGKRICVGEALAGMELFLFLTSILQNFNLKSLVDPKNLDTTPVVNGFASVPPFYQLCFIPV

For `O=C(CSC1=Nc2ccccc2C2=NC(CC(=O)NC3CCCCC3)C(=O)N12)NCc1ccco1` (centres undefined), the IC50 [1] was > 66 µM (inactive) and the IC50 [2] was 31.2 µM (inactive).

With `O=C1NC(=O)C(=Cc2cccc(OCCOc3ccccc3)c2)C(=O)N1` the IC50 (Genome polyprotein) was 51.2 µM (active).

With `Cc1nc2cc(NC(=O)CSc3nc4c(C)cccc4cc3C#N)ccc2s1` the AC50 (Cytochrome P450 2C19; read-out: AC50) was 0.251 µM (inconclusive) and the AC50 (Cytochrome P450 2C9) was 3.55 µM (inconclusive).

With `Oc1cccc2cc(Nc3ccccc3)cnc12` the AC50 [3] was 644 nM (active), the AC50 [4] was 4 µM (active) and the AC50 [5] was 1.4 µM (active). For the same compound, the AC50 (Paired box protein Pax-8) was 1.37 µM (active).

In the case of `CCOc1cc(N2CCOCC2)c(OCC)cc1NC(=O)CN1CCC(Cc2ccccc2)CC1`, the EC50 [6] is reported as 1.36 µM (active), the EC50 [7] is reported as > 60 µM (not active) and the AC50 [8] is reported as 2.28 µM (active).

In the case of `CCc1ccc(NCc2nc(-c3ccccc3)no2)cc1`, the IC50 (Protein skinhead-1) is reported as > 100 µM (inactive).

In the case of `COC(=O)N1CCC2(CCCN(C(c3ccccc3)c3ccccc3)C2)CC1`, the AC50 (Cytochrome P450 2C19; read-out: AC50) is reported as 25.1 µM (inconclusive) and the AC50 (Cytochrome P450 1A2) is reported as 15.8 µM (inconclusive).

With `COc1ccccc1CNC(=O)CSC1=NCCS1` the IC50 [1] was > 66 µM (inactive) and the IC50 [2] was > 66 µM (inactive).

In the case of `O=C(NC1CCCCCC1)C1CCCN1S(=O)(=O)c1cccc2cccnc12` (centres undefined), the AC50 [9] is reported as 10.7 µM (active).

In the case of `CCNc1ccc(C(=O)O)cc1N`, the AC50 [9] is reported as 1.41 µM (active).

For `COc1ccc(NC2CCCN(C(=O)c3csc(C(C)C)n3)C2)cc1` (centres undefined), the AC50 [9] was 0.226 µM (active) and the IC50 [10] was 139 µM (active).

For `CCOC(=O)C1CCCN(C(=O)c2ccc(-c3ccc([N+](=O)[O-])cc3)o2)C1` (centres undefined), the IC50 [1] was > 66 µM (inactive) and the IC50 [2] was > 66 µM (inactive).

For `CN(C)CCCO[C@@H]1[C@H]2OC(C)(C)O[C@H]2O[C@@H]1[C@H](O)CO` [AMIPRILOSE HYDROCHLORIDE], the IC50 (Protein skinhead-1) was > 100 µM (inactive).

In the case of `O=c1[nH]c2cc(Cl)c(Br)cc2o1` [BROMCHLORENONE], the IC50 (Protein skinhead-1) is reported as > 100 µM (inactive).

In the case of `CN(C)Cc1ccc(C(C)(C)C)cc1-c1cc(C(C)(C)C)ccc1CN(C)C`, the AC50 (Cytochrome P450 2C19) is reported as “inconclusive”.

For `O=C(O)[C@H]1C[C@]2(C[C@H](C(=O)O)C2)C1` (some centres undefined), the AC50 (Cytochrome P450 2C19) was “inconclusive”.

For `Cc1cc(SCNC(=O)c2ccccc2)nc(C(C)C)n1`, the IC50 [1] was > 66 µM (inactive) and the IC50 [2] was > 66 µM (inactive).
